Test: cardiovascular and respiratory function in anesthetized dogs (safety pharmacology)
Type: in vivo
Conditions: anesthetized Beagle dogs, three ascending doses 400, 800 and 1,200 mg/kg/day, infusion through the jugular vein
Procedure: The pharmacological properties of 3-(3,4-dimethoxy-phenyl)-3-(1-oxo-1,3-dihydro-isoindol-2-yl)-propionamide, including activity comparisons with thalidomide, are characterized in in vitro studies. Studies examine the effects of 3-(3,4-dimethoxy-phenyl)-3-(1-oxo-1,3-dihydro-isoindol-2-yl)-propionamide on the production of various cytokines. In addition, a safety pharmacology study of 3-(3,4-dimethoxy-phenyl)-3-(1-oxo-1,3-dihydro-isoindol-2-yl)-propionamide is conducted in dogs and the effects of the compound on ECG parameters are examined further as part of three repeat-dose toxicity studies in primates.
The effects of 3-(3,4-dimethoxy-phenyl)-3-(1-oxo-1,3-dihydro-isoindol-2-yl)-propionamide on cardiovascular and respiratory function are investigated in anesthetized dogs. Two groups of Beagle dogs (2/sex/group) are used. One group receives three doses of vehicle only and the other receives three ascending doses of 3-(3,4-dimethoxy-phenyl)-3-(1-oxo-1,3-dihydro-isoindol-2-yl)-propionamide (400, 800, and 1,200 mg/kg/day). In all cases, doses of 3-(3,4-dimethoxy-phenyl)-3-(1-oxo-1,3-dihydro-isoindol-2-yl)-propionamide or vehicle are successively administered via infusion through the jugular vein separated by intervals of at least 30 minutes. […]

## COc1ccc(C(CC(N)=O)N2Cc3ccccc3C2=O)cc1OC (stereo not shown) [3-(3,4-Dimethoxy-phenyl)-3-(1-oxo-1,3-dihydro-isoindol-2-yl)-propionamide]
  cardiovascular and respiratory changes compared to the vehicle control group: minimal

From patent US20090010886A1, “Method for the Treatment of Myeloproliferative Diseases Using(+)-2-[1-(3-Ethoxy-4-Methoxyphenyl)-2- Methylsulfonylethyl]-4- Acetylaminoisoindoline-1,3- Dione” (CELGENE CORPORATION, priority 2004, published 2009)
